Source: patent US20100151062A1, “Determining nutrients for animals through gene expression” (priority 2008, published 2010)

Tested on: cartilage cells of individual affected unhealthy dogs
Assay: In vitro culture of cartilage cells of affected dogs with curcumin or andrographolide, microarray
Type: cell-based, dog
Conditions: mean; for Fold change of gene expression, ACTB / Fold change of gene expression, ACTR3 / Fold change of gene expression, ADK / Fold change of gene expression, ANKRD10 / Fold change of gene expression, CAV1 / Fold change of gene expression, CDH11 / Fold change of gene expression, COL3A1 / Fold change of gene expression, COX1 / Fold change of gene expression, COX2 / Fold change of gene expression, IGFBP7 / Fold change of gene expression, IL2 / Fold change of gene expression, MMP2 / Fold change of gene expression, NOS2 / Fold change of gene expression, PTGS-2 / Fold change of gene expression, SPARC / Fold change of gene expression, STMN1 / Fold change of gene expression, TIMP1 / Fold change of gene expression, TIMP2 / Fold change of gene expression, TNF-a / Fold change of gene expression, TUBA / Fold change of gene expression, TUBB: 60 mg/l vs 0, 6 hours, cartilage cells of affected dogs; for Fold change of gene expression, ACTB / Net effect of the NBC on fold change, ACTB: gene ACTB; for Net effect of the NBC on fold change, ACTB / Net effect of the NBC on fold change, ACTR3 / Net effect of the NBC on fold change, ADK / Net effect of the NBC on fold change, ANKRD10 / Net effect of the NBC on fold change, CAV1 / Net effect of the NBC on fold change, CDH11 / Net effect of the NBC on fold change, COL3A1 / Net effect of the NBC on fold change, COX1 / Net effect of the NBC on fold change, COX2 / Net effect of the NBC on fold change, IGFBP7 / Net effect of the NBC on fold change, IL2 / Net effect of the NBC on fold change, MMP2 / Net effect of the NBC on fold change, NOS2 / Net effect of the NBC on fold change, PTGS-2 / Net effect of the NBC on fold change, SPARC / Net effect of the NBC on fold change, STMN1 / Net effect of the NBC on fold change, TIMP1 / Net effect of the NBC on fold change, TIMP2 / Net effect of the NBC on fold change, TNF-a / Net effect of the NBC on fold change, TUBA / Net effect of the NBC on fold change, TUBB: 60 mg/l, 6 hours; for Fold change of gene expression, ACTR3 / Net effect of the NBC on fold change, ACTR3: gene ACTR3; for Fold change of gene expression, ADK / Net effect of the NBC on fold change, ADK: gene ADK; for Fold change of gene expression, ANKRD10 / Net effect of the NBC on fold change, ANKRD10: gene ANKRD10; for Fold change of gene expression, CAV1 / Net effect of the NBC on fold change, CAV1: gene CAV1; for Fold change of gene expression, CDH11 / Net effect of the NBC on fold change, CDH11: gene CDH11; for Fold change of gene expression, COL3A1 / Net effect of the NBC on fold change, COL3A1: gene COL3A1; for Fold change of gene expression, COX1 / Net effect of the NBC on fold change, COX1: gene COX1; for Fold change of gene expression, COX2 / Net effect of the NBC on fold change, COX2: gene COX2; for Fold change of gene expression, IGFBP7 / Net effect of the NBC on fold change, IGFBP7: gene IGFBP7; for Fold change of gene expression, IL2 / Net effect of the NBC on fold change, IL2: gene IL2; for Fold change of gene expression, MMP2 / Net effect of the NBC on fold change, MMP2: gene MMP2; for Fold change of gene expression, NOS2 / Net effect of the NBC on fold change, NOS2: gene NOS2; for Fold change of gene expression, PTGS-2 / Net effect of the NBC on fold change, PTGS-2: gene PTGS-2; for Fold change of gene expression, SPARC / Net effect of the NBC on fold change, SPARC: gene SPARC; for Fold change of gene expression, STMN1 / Net effect of the NBC on fold change, STMN1: gene STMN1; for Fold change of gene expression, TIMP1 / Net effect of the NBC on fold change, TIMP1: gene TIMP1; for Fold change of gene expression, TIMP2 / Net effect of the NBC on fold change, TIMP2: gene TIMP2; for Fold change of gene expression, TNF-a / Net effect of the NBC on fold change, TNF-a: gene TNF-a; for Fold change of gene expression, TUBA / Net effect of the NBC on fold change, TUBA: gene TUBA; for Fold change of gene expression, TUBB / Net effect of the NBC on fold change, TUBB: gene TUBB
Method: Total RNA of cells was extracted using phenol/guanidine HCl reagents (Trizol, Invitrogen). RNA quality integrity was analysed using the Agilent 2100 Bioanalyser (Agilent Technologies) of the sample. The samples determined to have no, or minimal, loss of integrity and thus were considered suitable for use in experiments. mRNA was amplified for each sample, starting with 500 ng total RNA using a commercially available kit (Ambion T7 MEGAscript high yield transcription kit, Ambion). The mRNA was quantified using a spectrophotometer. mRNA was directly reverse transcribed to cDNA from 25 μg of total RNA using the Superscript indirect cDNA labeling Core kit (Invitrogen, Milan, Italy).
Two micrograms of cDNA were labelled with Cyanine-3dCTP (Cy3) or Cyanine-5dCTP (Cy5) fluorochromes using the cDNA labeling purification module kit (Invitrogen, Milan, Italy). Samples were hybridised to a canine specific, whole genome 44k spot 60mer oligonucleotide (Agilent Technologies). The labelled cDNA was appropriately coupled and used for competitive hybridization on the same microarray at 42° C. for 16 h. Fluorescence incorporation was determined using a spectrophotometer. The relative intensity of labelled cDNA in was acquired with ScanArray LITE scanner (PerkinElmer Life Sciences, Inc).
Expression data were then exported into Excel 2007 and processed with SAM software; comparison between groups was achieved using paired student's t tests. […] Correction for multiple hypothesis testing was performed using the false discovery rate (FDR).
Searching within the nutrient data set for biologically active nutrients with anti-arthritic and anti-inflammatory properties identified curcumin and androgropholide as the appropriated compositions. The cartilage cells of individual affected unhealthy dogs were cultured in vitro with 0, or 60 mg/l of curcumin or androgropholide for 6 hours. At the end of the incubation, these cartilage cells from individual affected dogs were washed and used for RNA extraction. For the microarray analysis, co-hybridisation of the RNA from 0 and 60 mg/l was conducted, using the material and the methods described previously.

In the case of `C=C1CC[C@@H]2[C@](C)(CO)[C@H](O)CC[C@@]2(C)[C@@H]1C/C=C1/C(=O)OC[C@H]1O` [Androgrpholide], the “Fold change of gene expression, ACTB” value is reported as −1.0, the “Net effect of the NBC on fold change, ACTB” value is reported as 2.8 and the “Fold change of gene expression, ACTR3” value is reported as 1.0. For the same molecule, the “Net effect of the NBC on fold change, ACTR3” value was 1.3, the “Fold change of gene expression, ADK” value was 0.0 and the “Net effect of the NBC on fold change, ADK” value was 3.6. For the same molecule, the “Fold change of gene expression, ANKRD10” value was 0.0, the “Net effect of the NBC on fold change, ANKRD10” value was 5.2 and the “Fold change of gene expression, CAV1” value was 0.0. For the same molecule, the “Net effect of the NBC on fold change, CAV1” value was 4.8, the “Fold change of gene expression, CDH11” value was −1.0 and the “Net effect of the NBC on fold change, CDH11” value was 5.9. For the same molecule, the “Fold change of gene expression, COL3A1” value was −2.0, the “Net effect of the NBC on fold change, COL3A1” value was 7.5 and the “Fold change of gene expression, COX1” value was 0.0. The “Net effect of the NBC on fold change, COX1” value was 0.8, the “Fold change of gene expression, COX2” value was 0.0 and the “Net effect of the NBC on fold change, COX2” value was 23.0. For the same molecule, the “Fold change of gene expression, IGFBP7” value was −2.0, the “Net effect of the NBC on fold change, IGFBP7” value was 1.7 and the “Fold change of gene expression, IL2” value was −6.0. For the same molecule, the “Net effect of the NBC on fold change, IL2” value was −3.0, the “Fold change of gene expression, MMP2” value was −5.0 and the “Net effect of the NBC on fold change, MMP2” value was 5.0. The “Fold change of gene expression, NOS2” value was −6.0, the “Net effect of the NBC on fold change, NOS2” value was −5.8 and the “Fold change of gene expression, PTGS-2” value was −5.0. The “Net effect of the NBC on fold change, PTGS-2” value was −3.8, the “Fold change of gene expression, SPARC” value was 0.0 and the “Net effect of the NBC on fold change, SPARC” value was 6.3. For the same molecule, the “Fold change of gene expression, STMN1” value was 0.0, the “Net effect of the NBC on fold change, STMN1” value was 6.2 and the “Fold change of gene expression, TIMP1” value was 0.0. For the same molecule, the “Net effect of the NBC on fold change, TIMP1” value was 6.2, the “Fold change of gene expression, TIMP2” value was 0.0 and the “Net effect of the NBC on fold change, TIMP2” value was 2.0. The “Fold change of gene expression, TNF-a” value was −8.0, the “Net effect of the NBC on fold change, TNF-a” value was 2.0 and the “Fold change of gene expression, TUBA” value was 0.0. For the same molecule, the “Net effect of the NBC on fold change, TUBA” value was 4.7, the “Fold change of gene expression, TUBB” value was 0.0 and the “Net effect of the NBC on fold change, TUBB” value was 4.8.
With `COc1cc(/C=C/C(=O)CC(=O)/C=C/c2ccc(O)c(OC)c2)ccc1O` [curcumin] the “Fold change of gene expression, ACTB” value was −5.0, the “Net effect of the NBC on fold change, ACTB” value was −1.2 and the “Fold change of gene expression, ACTR3” value was −1.0. The “Net effect of the NBC on fold change, ACTR3” value was −4.0, the “Fold change of gene expression, ADK” value was −4.3 and the “Net effect of the NBC on fold change, ADK” value was −1.4. For the same molecule, the “Fold change of gene expression, ANKRD10” value was −7.0, the “Net effect of the NBC on fold change, ANKRD10” value was −1.8 and the “Fold change of gene expression, CAV1” value was −3.0. For the same molecule, the “Net effect of the NBC on fold change, CAV1” value was 1.8, the “Fold change of gene expression, CDH11” value was −6.0 and the “Net effect of the NBC on fold change, CDH11” value was 0.9. For the same molecule, the “Fold change of gene expression, COL3A1” value was −6.0, the “Net effect of the NBC on fold change, COL3A1” value was 3.5 and the “Fold change of gene expression, COX1” value was −1.0. For the same molecule, the “Net effect of the NBC on fold change, COX1” value was −0.2, the “Fold change of gene expression, COX2” value was −15.0 and the “Net effect of the NBC on fold change, COX2” value was 8.0. For the same molecule, the “Fold change of gene expression, IGFBP7” value was −1.5, the “Net effect of the NBC on fold change, IGFBP7” value was 2.2 and the “Fold change of gene expression, IL2” value was −4.0. The “Net effect of the NBC on fold change, IL2” value was −1.0, the “Fold change of gene expression, MMP2” value was −6.5 and the “Net effect of the NBC on fold change, MMP2” value was 3.5. The “Fold change of gene expression, NOS2” value was −0.5, the “Net effect of the NBC on fold change, NOS2” value was −0.3 and the “Fold change of gene expression, PTGS-2” value was −3.0. For the same molecule, the “Net effect of the NBC on fold change, PTGS-2” value was −1.8, the “Fold change of gene expression, SPARC” value was −4.0 and the “Net effect of the NBC on fold change, SPARC” value was 2.3. The “Fold change of gene expression, STMN1” value was −5.0, the “Net effect of the NBC on fold change, STMN1” value was 1.2 and the “Fold change of gene expression, TIMP1” value was −5.0. For the same molecule, the “Net effect of the NBC on fold change, TIMP1” value was 1.2, the “Fold change of gene expression, TIMP2” value was −2.0 and the “Net effect of the NBC on fold change, TIMP2” value was 0.0. For the same molecule, the “Fold change of gene expression, TNF-a” value was −14.5, the “Net effect of the NBC on fold change, TNF-a” value was −4.5 and the “Fold change of gene expression, TUBA” value was −2.0. For the same molecule, the “Net effect of the NBC on fold change, TUBA” value was 2.7, the “Fold change of gene expression, TUBB” value was −5.0 and the “Net effect of the NBC on fold change, TUBB” value was −0.2.
